# Values of other authors in US6855351B2, “Pesticide formulation containing azadirachtin (not less than 300 ppm) and salanin in a formulated product with neem oil” (T. Stanes and Company Limited, priority 2002, dated 2005).
# Tested on: mammals
# Conditions: in vivo
smiles,measurement,value
C/C=C(\C)C(=O)O[C@H]1C[C@@H](OC(C)=O)[C@@]2(C(=O)OC)CO[C@H]3[C@@H](O)[C@@](C)([C@]45O[C@@]4(C)[C@H]4C[C@@H]5O[C@@H]5OC=C[C@@]54O)[C@H]4[C@]1(CO[C@]4(O)C(=O)OC)[C@@H]32 [Azadirachtin],mammalian toxicity,no apparent mammalian toxicity
